Results published in article PMC5863496, “Mesobuthus Venom-Derived Antimicrobial Peptides Possess Intrinsic Multifunctionality and Differential Potential as Drugs” (Frontiers in Microbiology, 2018).
Ends that are not written are not given here.

Experiments:
[1] = system: penicillin-resistant Staphylococcus aureus P1383; test: Inhibition-zone assay (CL); type: cell-based; conditions: concentration used in killing kinetics and membrane permeation
Description: (§1) The antimicrobial activity of seven peptides, including MeuFSPL-1, MeuFSPL-2, Marmelittin, Melittin, Meucin-22, Marcin-22, and MeuTXKβ1, was evaluated by the inhibition-zone assay previously described in our studies (Hultmark, [1998]; Zhu et al., [2012a]; Zhu and Gao, [2014]). Temperatures used were 30 or 37°C for bacteria or 28°C for fungi. Media used were Luria-Bertani (LB) Broth (10 g tryptone, 5 g yeast extract, and 5 g NaCl in 1 l of water) or Nutrient Broth (10 g peptone, 5 g beef extract powder, and 5 g NaCl in 1 l of water) or GYM(Isp2) (4 g yeast extract, 10 g malt extract, 4 g glucose, 2 g CaCO3 in 1 l of water) for bacteria or Potato Dextrose Broth (200 g patato and 20 g glucose in 1 l of water) for fungi. To make plates, 10 μl of microbial culture (~2 × 10^6 bacterial cells or fungal spores/ml) were mixed in 6 ml of medium containing 0.8% agar and poured into Peri dishes of 9.0 cm diameter. Wells with a diameter of 2 mm were punched into the medium, filled with 2 μl of sample each well. In this assay, three different doses of peptides were applied to three independent wells in one standard bacterial plate. After incubation overnight, inhibition zones were measured and used to calculate lethal concentrations (CL), a concentration just sufficient to inhibit bacterial growth (Hultmark, [1998]; Gao et al., [2009]). CL values are calculated from a plot of d^2 against log n, where d is the diameter (in cm) and n is the amount of sample applied in the well (in nmol). The plot is linear and thus CL can be calculated from the slope (k) and the intercept (m) of this plot. The formula used here is CL = 2.93/ak10^m/k, where “a” is the thickness of the bacterial plate and “CL” is in μM.

S. aureus PRSA P1383 = test: Killing kinetics; type: cell-based, Staphylococcus aureus; conditions: 5x CL (20 μg/ml)
Description: The in vitro killing curve for MeuTXKβ1 was determined against the bacterium S. aureus PRSA P1383. For the assay, a single fresh colony was inoculated into LB (Luria-Bertani) medium (10 g tryptone, 5 g yeast extract, and 5 g NaCl in 1 l of H2O) and incubated at 37°C until OD600 of 0.2. The initial concentration used was 4 × 10^7 cells/ml. Samples for colony counts were taken at time 0, 5, 10, 15, 20, 30, and 60 min after addition of peptides. Results are given as colony-forming units (CFUs) per milliliter.

Serum stability = type: in vitro ADME; conditions: fresh mouse serum, 37°C, read-out inhibition zone on S. aureus PRSA P1383 plates
Description: (§2) To assess serum stability, peptides were dissolved in H2O or fresh mouse serum for the indicated times at 37°C and their residual activity was measured by the inhibition-zone assay (Hultmark, [1998]).

Stability in H2O = type: physicochemical; conditions: 37°C, read-out inhibition zone on S. aureus PRSA P1383 plates
Description: as §2

[2] = system: Bacillus subtilis CGMCC 1.2428; test: Inhibition-zone assay (CL); type: cell-based; conditions: BS CGMCC 1.2428, N.A. = no activity at 0.8 nmol peptide each well
Description: as §1

[3] = system: Staphylococcus aureus J685; test: Inhibition-zone assay (CL); type: cell-based; conditions: SA J685, N.A. = no activity at 0.8 nmol peptide each well
Description: as §1

[4] = system: Staphylococcus aureus J698; test: Inhibition-zone assay (CL); type: cell-based; conditions: SA J698, N.A. = no activity at 0.8 nmol peptide each well
Description: as §1

[5] = system: Staphylococcus aureus J700; test: Inhibition-zone assay (CL); type: cell-based; conditions: SA J700, N.A. = no activity at 0.8 nmol peptide each well
Description: as §1

[6] = system: Staphylococcus aureus J706; test: Inhibition-zone assay (CL); type: cell-based; conditions: SA J706, N.A. = no activity at 0.8 nmol peptide each well
Description: as §1

[7] = system: Staphylococcus aureus J708; test: Inhibition-zone assay (CL); type: cell-based; conditions: SA J708, N.A. = no activity at 0.8 nmol peptide each well
Description: as §1

[8] = system: Staphylococcus aureus J710; test: Inhibition-zone assay (CL); type: cell-based; conditions: SA J710, N.A. = no activity at 0.8 nmol peptide each well
Description: as §1

[9] = system: Staphylococcus warneri ATCC 1.2824; test: Inhibition-zone assay (CL); type: cell-based; conditions: SW ATCC 1.2824, N.A. = no activity at 0.8 nmol peptide each well
Description: as §1

[10] = system: Stenotrophomonas maltophilia CGMCC 1.1788; test: Inhibition-zone assay (CL); type: cell-based; conditions: SMAL CGMCC 1.1788, N.A. = no activity at 0.8 nmol peptide each well
Description: as §1

[11] = system: Streptococcus mutans ATCC 1.2499; test: Inhibition-zone assay (CL); type: cell-based; conditions: SM ATCC 1.2499, N.A. = no activity at 0.8 nmol peptide each well
Description: as §1

[12] = system: Streptococcus salivarius ATCC 1.2498; test: Inhibition-zone assay (CL); type: cell-based; conditions: SSAL ATCC 1.2498, N.A. = no activity at 0.8 nmol peptide each well
Description: as §1

[13] = system: Streptococcus sanguinis ATCC 1.2497; test: Inhibition-zone assay (CL); type: cell-based; conditions: SSAN ATCC 1.2497, N.A. = no activity at 0.8 nmol peptide each well
Description: as §1

[14] = system: Streptomyces griseus NBRC 13350; test: Inhibition-zone assay (CL); type: cell-based; conditions: SG NBRC 13350, N.A. = no activity at 0.8 nmol peptide each well
Description: as §1

[15] = system: Streptomyces scabiei CGMCC 4.1765; test: Inhibition-zone assay (CL); type: cell-based; conditions: SSCA CGMCC 4.1765, N.A. = no activity at 0.8 nmol peptide each well
Description: as §1

[16] = system: methicillin-resistant coagulase-negative Staphylococcus P1369; test: Inhibition-zone assay (CL); type: cell-based; conditions: MRCNS P1369, N.A. = no activity at 0.8 nmol peptide each well
Description: as §1

[17] = system: methicillin-sensitive Staphylococcus aureus CGMCC 1.89; test: Inhibition-zone assay (CL); type: cell-based; conditions: MSSA CGMCC 1.89, N.A. = no activity at 0.8 nmol peptide each well
Description: as §1

[18] = system: penicillin-resistant Staphylococcus epidermidis P1389; test: Inhibition-zone assay (CL); type: cell-based; conditions: PRSE P1389, N.A. = no activity at 0.8 nmol peptide each well
Description: as §1

[19] = system: penicillin-sensitive Staphylococcus epidermidis P1111; test: Inhibition-zone assay (CL); type: cell-based; conditions: PSSE P1111, N.A. = no activity at 0.8 nmol peptide each well
Description: as §1

[20] = 24 h, three independent experiments

In the case of `CN[C@H](CC(C)C)C(=O)N[C@H]1C(=O)N[C@@H](CC(N)=O)C(=O)N[C@H]2C(=O)N[C@H]3C(=O)N[C@H](C(=O)N[C@H](C(=O)O)c4cc(O)cc(O)c4-c4cc3ccc4O)[C@H](O)c3ccc(c(Cl)c3)Oc3cc2cc(c3O[C@@H]2O[C@H](CO)[C@@H](O)[C@H](O)[C@H]2O[C@H]2C[C@](C)(N)[C@H](O)[C@H](C)O2)Oc2ccc(cc2Cl)[C@H]1O` [vancomycin], the “5x CL for P1383” value [1] is reported as 20 µg/mL, the “killing rate compared with MeuTXKβ1” value (S. aureus PRSA P1383) is reported as “slower killing rate” and the “residual activity after incubation in mouse serum” value (Serum stability; 6 h) is reported as “remained its full activity”. For the same molecule, the “residual activity after incubation in mouse serum” value (Serum stability; [20]) was “completely lose”, the “residual activity after incubation in H2O” value (Stability in H2O; 6 h) was “remained its full activity” and the “residual activity after incubation in H2O” value (Stability in H2O; [20]) was “completely lose”.
For “IFGAIAGLLKNIF-NH2 [MUC-13, reference compound]”, the “Lethal concentration (CL)” value [2] was 6.24 µM, the “Lethal concentration (CL)” value [3] was 10.16 µM and the “Lethal concentration (CL)” value [4] was 7.54 µM. The “Lethal concentration (CL)” value [5] was 7.54 µM, the “Lethal concentration (CL)” value [6] was 5.67 µM and the “Lethal concentration (CL)” value [7] was 7.54 µM. For the same molecule, the “Lethal concentration (CL)” value [8] was 7.10 µM, the “Lethal concentration (CL)” value [9] was 6.24 µM and the “Lethal concentration (CL)” value [10] was 4.89 µM. The “Lethal concentration (CL)” value [11] was 10.24 µM, the “Lethal concentration (CL)” value [12] was 7.54 µM and the “Lethal concentration (CL)” value [13] was 6.24 µM. The “Lethal concentration (CL)” value [14] was 53.31 µM, the “Lethal concentration (CL)” value [15] was 15.07 µM and the “Lethal concentration (CL)” value [16] was 33.80 µM. The “Lethal concentration (CL)” value [17] was 10.24 µM, the “Lethal concentration (CL)” value [18] was 24.06 µM and the “Lethal concentration (CL)” value [19] was 10.24 µM.
